Consider 5 compounds from ChEMBL document CHEMBL1201862, “PubChem BioAssay data set” (2004).

The structures appear in SMILES notation. The source made the active and inactive calls.

The nature of test [1]: L6 myocyte viability loss – cell-based, plate reader, cherry-pick, cytotoxicity control, dose response (AID 651896). Format: functional.
Test [2] can be described thus: Inhibition of T. cruzi Tulahuen strain amastigotes in L-6 muscle cells Measured in Cell-Based and Microorganism Combination System Using Plate Reader - 2138-03_Inhibitor_Dose_CherryPick_Activity. Format: functional. The note with it: Rattus norvegicus, L6.
The nature of test [3]: African trypanosome bloodstream form growth inhibition – STIB900 strain, plate reader, cherry pick, dose response (AID 651893). It counts as functional, cell-based, Trypanosoma brucei rhodesiense. The note with it: Trypanosoma brucei.
Test [4] is described as follows: antileishmanial activity on axenic amastigotes – plate reader, cherry pick, dose response (AID 651891). Format: functional, cell-based. To be noted: Leishmania donovani.
The nature of test [5]: Inhibition of Plasmodium falciparum NF54 Measured in Cell-Based System Using Plate Reader - 2138-11_Inhibitor_Dose_CherryPick_Activity. Format: functional.
A short description of test [6]: intracellular Trypanosoma cruzi inhibitors in host cells – cell-based, plate reader, cherry-pick samples, set 3, dose response (AID 651818).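 Note: compounds incubated with infected cells for about four days.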 Format: functional.
For test [7], the target named is T1, Sentrin-specific protease 8 (Homo sapiens, UniProt Q96LD8).
T1 sequence (Q96LD8 whole entry): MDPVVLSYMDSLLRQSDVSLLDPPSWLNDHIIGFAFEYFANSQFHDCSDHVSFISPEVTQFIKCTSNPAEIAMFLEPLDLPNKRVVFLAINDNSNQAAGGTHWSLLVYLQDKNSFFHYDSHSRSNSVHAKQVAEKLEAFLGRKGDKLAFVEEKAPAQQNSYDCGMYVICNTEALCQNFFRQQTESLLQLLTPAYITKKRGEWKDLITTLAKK
It counts as functional.

In test [8] the target is T2, Caspase-3 (Homo sapiens, UniProt P42574).
T2 sequence (P42574 whole entry): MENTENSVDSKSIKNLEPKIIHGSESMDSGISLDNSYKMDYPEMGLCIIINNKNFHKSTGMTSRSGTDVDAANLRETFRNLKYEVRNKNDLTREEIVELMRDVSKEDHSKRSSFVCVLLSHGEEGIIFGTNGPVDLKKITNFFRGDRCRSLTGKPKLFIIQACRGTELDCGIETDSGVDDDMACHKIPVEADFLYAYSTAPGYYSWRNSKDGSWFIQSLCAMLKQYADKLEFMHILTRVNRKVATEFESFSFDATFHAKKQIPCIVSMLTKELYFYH
Briefly: Dose-response confirmation of uHTS inhibitor hits of Sentrin-Specific Protease 8 in a Caspase-3 Fluorescence assay. It counts as functional.

For test [9], the target named is T1, Sentrin-specific protease 8. Format: functional. The source holds these as a separate data set.
For test [10], the system named is HEK293. Description: cells. It counts as functional, cell-based. The note with it: Homo sapiens.
Test [11] addresses Glucose-6-phosphate 1-dehydrogenase (Homo sapiens, UniProt P11413). Briefly: inhibition of Homo sapiens G6PD, dose series – biochemical, fluorescence, selectivity assay for P. falciparum G6PD inhibitor project, dose response (AID 504792). It counts as functional.
Test [12] addresses Tyrosine-protein phosphatase non-receptor type 22 (Homo sapiens, UniProt Q9Y2R2). Description: lymphoid phosphatase LYP inhibitors – biochemical, selectivity assay for STEP inhibitor project, dose response (AID 624241). Format: functional.
The target in test [13] is Dual specificity protein phosphatase 3 (Homo sapiens, UniProt P51452). Briefly: VHR phosphatase inhibition, dose response, selectivity assay for STEP inhibitor project, biochemical (AID 602374). Format: functional. To be noted: read-out: IC50_Mean.
Chain of Dual specificity protein phosphatase 3 (P51452 whole entry): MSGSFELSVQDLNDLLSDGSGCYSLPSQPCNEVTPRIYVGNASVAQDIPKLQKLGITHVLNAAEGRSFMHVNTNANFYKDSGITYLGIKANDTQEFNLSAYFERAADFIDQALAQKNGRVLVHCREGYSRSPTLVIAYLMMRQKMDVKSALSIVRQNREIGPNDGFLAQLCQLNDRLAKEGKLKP
For test [14], the target named is T3, Nuclear receptor subfamily 0 group B member 1 (Homo sapiens, UniProt P51843).
T3 sequence (P51843 whole entry): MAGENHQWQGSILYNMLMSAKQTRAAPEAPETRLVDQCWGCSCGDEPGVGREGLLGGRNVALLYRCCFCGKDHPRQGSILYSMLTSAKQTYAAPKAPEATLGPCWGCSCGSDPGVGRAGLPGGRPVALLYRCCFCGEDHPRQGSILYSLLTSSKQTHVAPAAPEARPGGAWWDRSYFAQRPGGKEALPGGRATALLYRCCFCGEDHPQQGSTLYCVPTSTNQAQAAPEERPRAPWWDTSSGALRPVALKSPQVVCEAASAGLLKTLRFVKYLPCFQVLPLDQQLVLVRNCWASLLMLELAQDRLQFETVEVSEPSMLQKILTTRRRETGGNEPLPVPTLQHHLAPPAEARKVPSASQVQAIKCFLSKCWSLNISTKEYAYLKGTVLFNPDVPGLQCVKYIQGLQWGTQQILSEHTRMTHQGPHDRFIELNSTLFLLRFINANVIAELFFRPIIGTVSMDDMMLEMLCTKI
Briefly: Luminescence-based cell-based high throughput dose response assay for inhibitors of the orphan nuclear receptor subfamily 0, group B, member 1 (DAX1; NR0B1). [Related pubchem assays (depositor defined):AID504766, AID504790]. Format: functional.

The target in test [15] is T4, Tyrosine-protein phosphatase non-receptor type 11 (Homo sapiens, UniProt Q06124).
T4 sequence (Q06124 whole entry): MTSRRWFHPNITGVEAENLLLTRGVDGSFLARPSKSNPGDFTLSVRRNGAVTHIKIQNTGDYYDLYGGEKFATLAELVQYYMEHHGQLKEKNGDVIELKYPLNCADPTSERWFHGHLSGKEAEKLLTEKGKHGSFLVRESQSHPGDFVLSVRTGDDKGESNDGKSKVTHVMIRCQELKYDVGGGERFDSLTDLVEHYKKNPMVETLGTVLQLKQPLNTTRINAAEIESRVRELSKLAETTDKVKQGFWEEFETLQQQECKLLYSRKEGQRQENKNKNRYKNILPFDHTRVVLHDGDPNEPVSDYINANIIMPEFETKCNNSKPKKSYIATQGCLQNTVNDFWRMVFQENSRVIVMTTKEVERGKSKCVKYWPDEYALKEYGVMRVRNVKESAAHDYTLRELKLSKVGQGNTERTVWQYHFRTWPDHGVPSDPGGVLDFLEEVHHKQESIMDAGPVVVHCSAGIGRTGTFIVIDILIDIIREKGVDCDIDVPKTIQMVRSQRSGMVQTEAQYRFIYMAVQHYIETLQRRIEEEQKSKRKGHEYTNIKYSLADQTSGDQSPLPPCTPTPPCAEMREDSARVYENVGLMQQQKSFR
Briefly: PTPN11 enzyme inhibitors – biochemical, selectivity assay for STEP inhibitor project, dose response (AID 602367). It counts as functional. To be noted: read-out: IC50_Mean.

The target in test [16] is T5, Tyrosine-protein phosphatase non-receptor type 5 (Homo sapiens, UniProt P54829).
T5 sequence (P54829 whole entry): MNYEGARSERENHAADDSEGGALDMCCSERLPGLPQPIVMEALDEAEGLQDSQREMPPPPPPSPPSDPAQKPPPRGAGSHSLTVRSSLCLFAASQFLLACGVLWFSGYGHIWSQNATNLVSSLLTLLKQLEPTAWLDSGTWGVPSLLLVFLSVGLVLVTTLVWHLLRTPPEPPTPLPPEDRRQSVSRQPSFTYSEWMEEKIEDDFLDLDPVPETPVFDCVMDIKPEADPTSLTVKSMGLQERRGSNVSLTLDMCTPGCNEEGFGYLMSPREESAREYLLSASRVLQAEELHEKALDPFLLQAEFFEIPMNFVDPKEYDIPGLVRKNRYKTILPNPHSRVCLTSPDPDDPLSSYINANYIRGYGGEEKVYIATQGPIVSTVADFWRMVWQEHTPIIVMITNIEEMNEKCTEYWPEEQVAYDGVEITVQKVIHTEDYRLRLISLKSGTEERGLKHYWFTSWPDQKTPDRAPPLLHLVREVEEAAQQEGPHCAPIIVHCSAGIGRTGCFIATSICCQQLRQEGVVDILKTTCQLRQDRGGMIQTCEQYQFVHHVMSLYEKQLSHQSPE
Briefly: PTPN5 enzyme inhibition – biochemical, fluorescence intensity, uHTS hits, confirmation (AID 602372). Format: functional. The note with it: read-out: IC50_Mean.

The target of test [17] is Mu-type opioid receptor (Homo sapiens, UniProt P35372). It counts as functional, cell-based.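 Note: U2OS cells with beta-arrestin recruitment to OPRM1 by beta-gal complementation.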
Chain of Mu-type opioid receptor (P35372 whole entry): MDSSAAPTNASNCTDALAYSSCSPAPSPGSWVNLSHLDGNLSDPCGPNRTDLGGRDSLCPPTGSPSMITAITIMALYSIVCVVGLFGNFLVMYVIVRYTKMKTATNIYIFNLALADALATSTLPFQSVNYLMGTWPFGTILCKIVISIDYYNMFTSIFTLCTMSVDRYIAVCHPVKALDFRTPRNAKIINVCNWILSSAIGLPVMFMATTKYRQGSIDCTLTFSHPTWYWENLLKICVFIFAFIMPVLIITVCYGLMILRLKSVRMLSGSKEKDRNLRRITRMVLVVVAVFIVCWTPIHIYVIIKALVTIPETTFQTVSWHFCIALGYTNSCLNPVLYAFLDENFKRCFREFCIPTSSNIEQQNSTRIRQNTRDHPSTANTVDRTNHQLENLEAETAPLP
Test [18] concerns the target 5-hydroxytryptamine receptor 2A (Mus musculus, UniProt P35363). Format: functional, cell-based.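 Note: CHO-K1 cells with tagged receptor and beta-arrestin; agonist potency measured as compound-induced activation of the receptor.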
Test [19] concerns the target Broad substrate specificity ATP-binding cassette transporter ABCG2 (Homo sapiens, UniProt Q9UNQ0). Description: blockers of JC-1 export by ABCG2 – Ig-MXP3 cells, flow cytometry, dose response (AID 1690). Format: functional.

Chain of Glucose-6-phosphate 1-dehydrogenase (P11413 whole entry): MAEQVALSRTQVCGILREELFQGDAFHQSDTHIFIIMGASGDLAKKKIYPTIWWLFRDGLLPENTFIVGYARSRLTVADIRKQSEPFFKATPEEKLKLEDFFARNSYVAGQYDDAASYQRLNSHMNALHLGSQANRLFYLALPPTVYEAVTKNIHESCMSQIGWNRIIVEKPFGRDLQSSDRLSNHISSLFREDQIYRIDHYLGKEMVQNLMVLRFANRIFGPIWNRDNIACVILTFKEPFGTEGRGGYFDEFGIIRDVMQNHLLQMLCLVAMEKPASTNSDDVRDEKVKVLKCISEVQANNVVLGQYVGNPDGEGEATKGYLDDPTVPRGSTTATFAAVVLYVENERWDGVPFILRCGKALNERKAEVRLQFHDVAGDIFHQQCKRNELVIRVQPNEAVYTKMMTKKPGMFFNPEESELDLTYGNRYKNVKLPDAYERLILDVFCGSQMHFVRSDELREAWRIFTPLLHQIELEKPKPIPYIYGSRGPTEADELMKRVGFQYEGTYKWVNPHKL
Chain of 5-hydroxytryptamine receptor 2A (P35363 whole entry): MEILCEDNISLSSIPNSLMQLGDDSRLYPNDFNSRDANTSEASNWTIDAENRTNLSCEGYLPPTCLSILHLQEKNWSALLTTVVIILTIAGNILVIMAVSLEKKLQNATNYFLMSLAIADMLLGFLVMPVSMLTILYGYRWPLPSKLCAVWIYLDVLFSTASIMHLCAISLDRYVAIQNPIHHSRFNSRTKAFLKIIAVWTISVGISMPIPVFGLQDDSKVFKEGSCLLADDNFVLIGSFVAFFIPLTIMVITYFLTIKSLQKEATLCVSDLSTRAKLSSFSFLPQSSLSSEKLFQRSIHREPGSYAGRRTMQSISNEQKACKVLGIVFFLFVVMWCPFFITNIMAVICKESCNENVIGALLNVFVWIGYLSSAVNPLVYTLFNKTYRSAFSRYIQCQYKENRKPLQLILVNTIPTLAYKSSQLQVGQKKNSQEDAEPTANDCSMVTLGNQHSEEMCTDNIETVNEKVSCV
Chain of Tyrosine-protein phosphatase non-receptor type 22 (Q9Y2R2 whole entry): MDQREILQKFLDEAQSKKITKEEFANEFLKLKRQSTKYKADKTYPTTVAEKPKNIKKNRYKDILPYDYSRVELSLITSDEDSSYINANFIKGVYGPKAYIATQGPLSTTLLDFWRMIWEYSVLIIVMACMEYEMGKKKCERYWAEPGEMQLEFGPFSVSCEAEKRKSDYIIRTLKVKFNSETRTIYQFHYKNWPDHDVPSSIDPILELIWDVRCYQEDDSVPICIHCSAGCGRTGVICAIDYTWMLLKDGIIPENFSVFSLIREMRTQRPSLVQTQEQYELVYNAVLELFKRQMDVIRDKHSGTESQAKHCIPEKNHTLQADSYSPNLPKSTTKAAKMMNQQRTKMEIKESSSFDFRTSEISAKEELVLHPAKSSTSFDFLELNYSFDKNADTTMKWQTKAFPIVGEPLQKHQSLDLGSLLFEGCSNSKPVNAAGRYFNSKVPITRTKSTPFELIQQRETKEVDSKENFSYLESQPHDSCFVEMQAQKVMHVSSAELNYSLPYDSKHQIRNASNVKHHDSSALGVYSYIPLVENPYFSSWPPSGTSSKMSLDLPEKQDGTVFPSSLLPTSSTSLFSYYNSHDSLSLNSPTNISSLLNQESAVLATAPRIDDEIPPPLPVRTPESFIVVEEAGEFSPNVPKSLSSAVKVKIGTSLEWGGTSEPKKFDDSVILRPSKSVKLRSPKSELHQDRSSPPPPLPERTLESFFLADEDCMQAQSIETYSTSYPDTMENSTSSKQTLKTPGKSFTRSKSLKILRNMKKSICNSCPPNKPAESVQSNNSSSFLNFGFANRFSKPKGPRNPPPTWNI
Chain of Broad substrate specificity ATP-binding cassette transporter ABCG2 (Q9UNQ0 whole entry): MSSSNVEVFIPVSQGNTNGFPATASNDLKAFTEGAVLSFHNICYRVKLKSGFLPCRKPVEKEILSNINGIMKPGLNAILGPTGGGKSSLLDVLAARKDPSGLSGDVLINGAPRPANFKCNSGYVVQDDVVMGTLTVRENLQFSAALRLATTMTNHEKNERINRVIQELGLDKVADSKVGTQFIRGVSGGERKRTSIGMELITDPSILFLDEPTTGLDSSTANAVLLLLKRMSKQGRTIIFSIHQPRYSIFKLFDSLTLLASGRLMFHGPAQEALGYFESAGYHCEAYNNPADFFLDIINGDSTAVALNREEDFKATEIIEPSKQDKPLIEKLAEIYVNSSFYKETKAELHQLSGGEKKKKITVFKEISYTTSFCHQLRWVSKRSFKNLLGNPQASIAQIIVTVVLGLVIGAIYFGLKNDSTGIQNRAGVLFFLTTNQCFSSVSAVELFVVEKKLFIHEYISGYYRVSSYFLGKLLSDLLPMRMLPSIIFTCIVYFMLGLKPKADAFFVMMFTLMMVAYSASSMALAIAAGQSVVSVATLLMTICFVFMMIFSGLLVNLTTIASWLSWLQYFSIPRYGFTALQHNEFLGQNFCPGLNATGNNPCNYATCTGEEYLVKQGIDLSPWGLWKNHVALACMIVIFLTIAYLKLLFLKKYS

As to `C[C@H]1CN([C@@H](C)CO)C(=O)c2cccc(NC(=O)c3ccncc3)c2O[C@H]1CN(C)Cc1ccccc1`, the IC50 was > 100 µM (inactive) in [1]; 19.2 µM (inactive) in test [2]; 51.5 µM (inactive) in test [3]; > 100 µM (inactive) in [4]; 19.2 µM (inactive) in [5]. Also, in [6], the AC50 (usually the midpoint of the concentration-response curve, whichever way the signal moves) is 0.267 µM (active).

For `COc1ccc(OC)c(S(=O)(=O)N(C)CC(=O)N2CCc3ccccc3C2)c1`, the IC50 is 8.07 µM (active) in test [7], 30.8 µM (active) in test [8] and 9.57 µM (active) in test [9].

`CCN1CCN(C(=S)c2ccc(O)cc2)CC1`: the IC50 is > 67.6 µM (inactive) in test [10]; > 80 µM (inactive) in test [11]; 45.1 µM (inactive) in test [12]; 0.74 µM (active) in [13]; > 67.6 µM (inactive) in test [14]; 0.712 µM (active) in [15]. In addition, the IC50 in test [16] was 20.1 µM (inactive).

For `COc1cccc(CN2CCN(C(=O)c3ccco3)CC2)c1`, the EC50 (as a rule, the concentration giving half of the maximal effect) is 92.5 µM (inactive) in test [17] and 1.16 µM (active) in test [18].

Take `Cc1cc(C)c(C#N)c(SCc2c(F)cccc2[N+](=O)[O-])n1`: the half-maximal effective concentration (EC50) in [19] is 3.82 µM (active).
